Experimental data: US11110102B2, “Antifungal agents used in combination” (Scynexis, Inc., priority 2017, dated 2021)

What was measured:
[1] = system: A. fumigatus MRL #28500; experiment: Checkerboard combination MIC testing; assay type: cell-based, Aspergillus fumigatus; settings: read at 48 hours, duplicate
Source text: To determine the type of interaction between a representative compound of the enfumafungin derivatives (SCY-078) with several antifungal agents against Aspergillus fumigatus, the most frequent mold causing invasive disease in humans, the checkerboard method was used. The citrate salt of the compound was used in the studies.
The checkerboard method involves the determination of percent growth inhibition of fungal cells in the presence of different combinations of drugs. Percent growth inhibition is calculated relative to growth in control wells which contain only cells and no drug. The assay was performed in 96-well microplates in which each row and each column contained twofold serial dilutions of drug A and drug B at concentrations ranging from 0 to slightly higher than their minimum inhibitory concentration (MIC). […] Then the inoculum was added to each well and the growth was evaluated after 48 hrs incubation to determine the first well in which growth was inhibited. The checkerboard-based determination of MICs of antifungal agents in combination was followed by further analysis employing the nonparametric fractional inhibitory concentration index (FICI), which is defined by the following equation:
[formula] where MIC-A and MIC-B are the MICs of drugs A and B, respectively.
Each drug was initially diluted in either sterile, distilled water or in DMSO, depending on whether the drug was water-soluble or water-insoluble, respectively.
Stock solution of SCY-078 was prepared in DMSO at 200 times the concentration desired for use in the drug plates. Serial dilutions of stock solution were conducted in DMSO to obtain eleven 2-fold dilutions of the drug. The SCY-078 solution was then diluted to 4 times the desired concentration in RPMI-1640 medium so that the DMSO would not limit growth of the organism and so that the quantity of DMSO was the same for every dilution.
Two 96-well plates are needed to conduct a combination test. Using a multichannel pipette, 50 μl of the lowest concentration of the first drug (Drug A) was added to each well of column 1 of the first plate (plate A) and column 1 of the second plate (plate B; rows A-D). Then, 50 μl of the next highest working dilution of Drug A was added to each well in column 2, continuing with dilutions until all columns 1-11 were filled. Column 12 was left empty. 50 μl of the lowest concentration of Drug B was added to each well in Row D of plate B. 50 μl of the next highest working dilution of Drug B was added to each well in row C of plate B, continuing with dilutions until all rows through row B of plate A were filled.
Following the above, 100 μl of organism inoculum was added to every well. The plates were then incubated for 48 hours and visually read after incubation.
The objective of the study was to determine whether the combination of SCY-078 with voriconazole, isavuconazole, or amphotericin B would result in a combined in vitro antifungal activity exceeding the sum of the activities of each drug alone. Combination MIC testing was performed using the checkerboard assay described above.
A. fumigatus 28500 has a CYP51 mutation at F46Y.
Initial MIC determinations of the individual antifungals were performed according to the Clinical and Laboratory Standards Institute (CLSI) M38-A2 standard for the susceptibility testing of filamentous fungi.
Combination MIC testing was performed using a checkerboard test method according to the Center for Medical Mycology SOP A11.3. The checkerboard combination test method is a modification of the microdilution antifungal susceptibility test wherein two test compounds are combined in varying concentrations to determine whether they have synergistic, antagonistic, or no effect on the respective MIC values.
Antifungals were serially diluted two-fold in RPMI medium to produce eleven concentrations each and were combined in wells of a microtiter plate. Two rows consisting of serial dilutions of each individual drug were included. […]

[2] = system: NIH Aspergillus fumigatus isolate 4215; experiment: Neutropenic rabbit model of invasive pulmonary aspergillosis (New Zealand White rabbits); assay type: in vivo; settings: intravenously once daily
Protocol: A study was conducted to evaluate the efficacy of the combination of SCY-078 with isavuconazole. Isavuconazole is a second generation antifungal triazole with activity against Aspergillus spp. As described above, invasive pulmonary aspergillosis is a life-threatening infection in immunosuppressed patients—particularly those with severe and prolonged neutropenia as a consequence of myelotoxic chemotherapy for the treatment of cancer, and those receiving immunosuppressive medication for rejection prophylaxis after organ transplantation or treatment of graft-versus-host disease (GVHD) after allogeneic bone marrow transplantation. A neutropenic rabbit model was selected for this in vivo evaluation to further illustrate the effect of the combination therapy of SCY-078 and an azole, in a relevant immunosuppressed population.
New Zealand White rabbits weighing 2.5 to 3.5 kg (Covance Research Products, Inc., Denver, Pa.) were used in this study. Vascular access was established by the surgical placement of a silastic tunneled central venous catheter. Cytosine arabinoside (Cytosar-U) 525 mg/m^2 was administered intravenously on days 1 through 5, and on days 8, 9, 13 and 14 to produce profound and persistent neutropenia (a neutrophil concentration of <100 neutrophils/μL). Methylprednisolone (Solu-Medrol®, Pfizer, NY) 5 mg/kg was administered on days 1 through 3 to inhibit macrophage activity. […]
Survival, pulmonary infarct, and galactomannan antigenemia (a serological marker of Aspergillus infection) were evaluated as indicators of treatment response. […] Serum galactomannan concentrations were determined by the Platelia® Aspergillus enzyme immunoassay (EIA) (Bio-Rad, Marnes-la-Coquette, France) one-stage immunoenzymatic sandwich microplate assay method. Enzyme immunoassay data were expressed as a serum GMI (galactomannan index) plotted over time.

Row | SMILES | MIC per drug in Combination ([1]; A. fumigatus MRL 28500 (azole-resistant, CYP51 F46Y), SCY-078 combined with isavuconazole) [µg/mL] | MIC ([1]; Aspergillus fumigatus, SCY078, 48 h, read-out: MIC per drug Alone, A. fumigatus MRL 28500 (azole-resistant, CYP51 F46Y), drug alone, SCY-078/isavuconazole test) [µg/mL] | survival rate up to day 13 ([2]; ISA40: isavuconazole 40 mg/kg/day alone, 2 out of 6) [%] | MIC in Combination ([1]; A. fumigatus MRL 28500 (azole-resistant, CYP51 F46Y), SCY-078 combined with voriconazole) [µg/mL] | MIC Alone ([1]; A. fumigatus MRL 28500 (azole-resistant, CYP51 F46Y), drug alone, SCY-078/voriconazole test) [µg/mL] | survival rate up to day 13 ([2]; SCY2.5: SCY-078 2.5 mg/kg/day alone, 1 out of 6) [%] | survival until day 13 ([2]; SCY7.5: SCY-078 7.5 mg/kg/day alone, six per group)
1 | C[C@@H](c1nc(-c2ccc(C#N)cc2)cs1)[C@](O)(Cn1cncn1)c1cc(F)ccc1F [Isavuconazole, isavuconazole] | >8 | > 8 | 32 |  |  |  | 
2 | CC(C)[C@@H](C)[C@@]1(C)CC[C@]2(C)[C@H]3CC[C@@H]4[C@@]5(COC[C@@]4(C)[C@@H](OC[C@](C)(N)C(C)(C)C)[C@H](n4ncnc4-c4ccncc4)C5)C3=CC[C@@]2(C)[C@@H]1C(=O)O [SCY-078, (1S,4aR,6aS,7R,8R,10aR,10bR,12aR,14R,15R)-15-[[(2R)-2-amino-2,3,3-trimethylbutyl]oxy]-8-[(1R)-1,2-dimethylpropyl]-14-[5-(4-pyridinyl)-1H-1,2,4-triazol-1-yl]-1,6,6a,7,8,9,10,10a,10b,11,12,12a-dodecahydro-1,6a,8,10a-tetramethyl-4H-1,4a-propano-2H-phenanthro[1,2-c]pyran-7-carboxylic acid] |  |  |  | 1 | 8 | 16 | no animals surviving until day 13
